ChEMBL document CHEMBL5260845, “Flavone-based arylamides as potential anticancers: Design, synthesis and in vitro cell-based/cell-free evaluations” (2020)
Activity calls are given as the source filed them. No cut-off for these calls is given here.

Columns and labels:
SF-295 = assay: Antiproliferative activity against human SF-295 cells assessed as cell growth inhibition at 10 uM by SRB assay relative to control; assay type: functional
Malme-3M = assay: Antiproliferative activity against human Malme-3M cells assessed as cell growth inhibition at 10 uM by SRB assay relative to control; assay type: functional
HL-60 [1] = assay: Antiproliferative activity against human HL-60 cells assessed as cell growth inhibition at 10 uM by SRB assay relative to control; assay type: functional
RPMI-8226 [2] = assay: Antiproliferative activity against human RPMI-8226 cells assessed as cell growth inhibition at 10 uM by SRB assay relative to control; assay type: functional
CCRF-CEM = assay: Antiproliferative activity against human CCRF-CEM cells assessed as cell growth inhibition at 10 uM by SRB assay; assay type: functional, cell-based
HL-60 [3] = assay: Antiproliferative activity against human HL-60 cells assessed as cell growth inhibition at 10 uM by SRB assay; assay type: functional, cell-based
K562 = assay: Antiproliferative activity against human K562 cells assessed as cell growth inhibition at 10 uM by SRB assay; assay type: functional, cell-based
SR = assay: Antiproliferative activity against human SR cells assessed as cell growth inhibition at 10 uM by SRB assay; assay type: functional, cell-based
A549 = assay: Antiproliferative activity against human A549 cells assessed as cell growth inhibition at 10 uM by SRB assay; assay type: functional, cell-based
EKVX = assay: Antiproliferative activity against human EKVX cells assessed as cell growth inhibition at 10 uM by SRB assay; assay type: functional
HOP-62 = assay: Antiproliferative activity against human HOP-62 cells assessed as cell growth inhibition at 10 uM by SRB assay; assay type: functional, cell-based
HOP-92 = assay: Antiproliferative activity against human HOP-92 cells assessed as cell growth inhibition at 10 uM by SRB assay; assay type: functional, cell-based
NCI-H226 = assay: Antiproliferative activity against human NCI-H226 cells assessed as cell growth inhibition at 10 uM by SRB assay; assay type: functional
NCI-H23 = assay: Antiproliferative activity against human NCI-H23 cells assessed as cell growth inhibition at 10 uM by SRB assay; assay type: functional
NCI-H322M = assay: Antiproliferative activity against human NCI-H322M cells assessed as cell growth inhibition at 10 uM by SRB assay; assay type: functional, cell-based
NCI-H460 = assay: Antiproliferative activity against human NCI-H460 cells assessed as cell growth inhibition at 10 uM by SRB assay; assay type: functional, cell-based
NCI-H522 [4] = assay: Antiproliferative activity against human NCI-H522 cells assessed as cell growth inhibition at 10 uM by SRB assay; assay type: functional, cell-based
NCI-H522 [5] = assay: Antiproliferative activity against human NCI-H522 cells assessed as cell growth inhibition at 10 uM by SRB assay relative to control; assay type: functional
COLO 205 [6] = assay: Antiproliferative activity against human COLO 205 cells assessed as cell growth inhibition at 10 uM by SRB assay relative to control; assay type: functional
HCC 2998 [7] = assay: Antiproliferative activity against human HCC 2998 cells assessed as cell growth inhibition at 10 uM by SRB assay relative to control; assay type: functional
COLO 205 [8] = assay: Antiproliferative activity against human COLO 205 cells assessed as cell growth inhibition at 10 uM by SRB assay; assay type: functional, cell-based
HCC 2998 [9] = assay: Antiproliferative activity against human HCC 2998 cells assessed as cell growth inhibition at 10 uM by SRB assay; assay type: functional, cell-based
HCT-116 = assay: Antiproliferative activity against human HCT-116 cells assessed as cell growth inhibition at 10 uM by SRB assay; assay type: functional, cell-based
HT-29 = assay: Antiproliferative activity against human HT-29 cells assessed as cell growth inhibition at 10 uM by SRB assay; assay type: functional, cell-based
KM12 = assay: Antiproliferative activity against human KM12 cells assessed as cell growth inhibition at 10 uM by SRB assay; assay type: functional, cell-based
SW-620 = assay: Antiproliferative activity against human SW620 cells assessed as cell growth inhibition at 10 uM by SRB assay; assay type: functional, cell-based
U-251 = assay: Antiproliferative activity against human U-251 cells assessed as cell growth inhibition at 10 uM by SRB assay relative to control; assay type: functional
SF-539 = assay: Antiproliferative activity against human SF-539 cells assessed as cell growth inhibition at 10 uM by SRB assay relative to control; assay type: functional
UACC-257 = assay: Antiproliferative activity against human UACC-257 cells assessed as cell growth inhibition at 10 uM by SRB assay relative to control; assay type: functional
UACC-62 = assay: Antiproliferative activity against human UACC-62 cells assessed as cell growth inhibition at 10 uM by SRB assay relative to control; assay type: functional
LOX IMVI = assay: Antiproliferative activity against human LOX IMVI cells assessed as cell growth inhibition at 10 uM by SRB assay relative to control; assay type: functional
MDA-MB-435 = assay: Antiproliferative activity against human MDA-MB-435 cells assessed as cell growth inhibition at 10 uM by SRB assay relative to control; assay type: functional
OVCAR-8 = assay: Antiproliferative activity against human OVCAR-8 cells assessed as cell growth inhibition at 10 uM by SRB assay relative to control; assay type: functional
ACHN = assay: Antiproliferative activity against human ACHN cells assessed as inhibition of cell growth at 10 uM by SRB assay relative to control; assay type: functional; details: pooled result: one value given for 2 cell lines, strains, targets or settings
RXF 393 = assay: Antiproliferative activity against human RXF 393 cells assessed as inhibition of cell growth at 10 uM by SRB assay relative to control; assay type: functional
CAKI-1 = assay: Antiproliferative activity against human CAKI-1 cells assessed as inhibition of cell growth at 10 uM by SRB assay relative to control; assay type: functional
DU-145 = assay: Antiproliferative activity against human DU-145 cells assessed as inhibition of cell growth at 10 uM by SRB assay; assay type: functional, cell-based
Melanoma cell line = assay: Antiproliferative activity against human melanoma cells assessed as cell growth inhibition at 10 uM by SRB assay relative to control; assay type: functional
[10] = Antiproliferative activity against human hematologic cancer cells assessed as cell growth inhibition at 10 uM by SRB assay relative to control; assay type: functional
Renal cancer cell line = assay: Antiproliferative activity against human renal cancer cells assessed as cell growth inhibition at 10 uM by SRB assay relative to control; assay type: functional
[11] = Antiproliferative activity against human colon cancer cells assessed as cell growth inhibition at 10 uM by SRB assay relative to control; assay type: functional; details: Colon carcinoma cell
Breast carcinoma cell = assay: Antiproliferative activity against human breast cancer cells assessed as cell growth inhibition at 10 uM by SRB assay relative to control; assay type: functional; details: pooled result: one value given for 3 cell lines, strains, targets or settings
Lung cancer cell line = assay: Antiproliferative activity against human lung cancer cells assessed as cell growth inhibition at 10 uM by SRB assay relative to control; assay type: functional
[12] = Antiproliferative activity against human brain cancer cells assessed as cell growth inhibition at 10 uM by SRB assay relative to control; assay type: functional
RPMI-8226 [13] = assay: Antiproliferative activity against human RPMI-8226 cells assessed as cell growth inhibition by SRB assay; assay type: functional

In the case of `COc1cc2oc(-c3cccc(C(=O)Nc4ccc(Cl)cc4)c3)cc(=O)c2c(OC)c1OC`, the inhibition at 10 µM (SF-295) is reported as 142%, the inhibition at 10 µM (Malme-3M) is reported as 85.8% and the inhibition at 10 µM (HL-60 [1]) is reported as 111%. For the same compound, the inhibition at 10 µM (RPMI-8226 [2]) was 82.6%, the inhibition (CCRF-CEM) was “Active” and the inhibition (HL-60 [3]) was “Active”. For the same compound, the inhibition (K562) was “Active”, the inhibition (SR) was “Active” and the inhibition (A549) was “Active”. The inhibition (EKVX) was “Active”, the inhibition (HOP-62) was “Active” and the inhibition (HOP-92) was “Active”. The inhibition (NCI-H226) was “Active”, the inhibition (NCI-H23) was “Active” and the inhibition (NCI-H322M) was “Active”. For the same compound, the inhibition (NCI-H460) was “Active”, the inhibition (NCI-H522 [4]) was “Active” and the inhibition at 10 µM (NCI-H522 [5]) was 74.8%. The inhibition at 10 µM (COLO 205 [6]) was 98.3%, the inhibition at 10 µM (HCC 2998 [7]) was 77.4% and the inhibition (COLO 205 [8]) was “Active”. The inhibition (HCC 2998 [9]) was “Active”, the inhibition (HCT-116) was “Active” and the inhibition (HT-29) was “Active”. For the same compound, the inhibition (KM12) was “Active”, the inhibition (SW-620) was “Active” and the inhibition at 10 µM (U-251) was greater than 50%. For the same compound, the inhibition at 10 µM (SF-539) was greater than 50%, the inhibition at 10 µM (UACC-257) was 107% and the inhibition at 10 µM (UACC-62) was 107%. It also gave an inhibition at 10 µM (LOX IMVI) of 97.8%, an inhibition at 10 µM (MDA-MB-435) of 62.5% and an inhibition at 10 µM (OVCAR-8) of 56.9%. For the same compound, the inhibition at 10 µM (ACHN) was 61.4%, the inhibition at 10 µM (RXF 393) was 129% and the inhibition at 10 µM (CAKI-1) was 91.8%. The inhibition (DU-145) was “Active”, the inhibition at 10 µM (Melanoma cell line) was 102% and the inhibition at 10 µM [10] was 90%. For the same compound, the inhibition at 10 µM (Renal cancer cell line) was 82.9%, the inhibition at 10 µM [11] was 61.5% and the inhibition at 10 µM (Breast carcinoma cell) was 61.5%. The inhibition at 10 µM (Lung cancer cell line) was 61.5%, the inhibition at 10 µM [12] was 61.5% and the GI50 (RPMI-8226 [13]) was 490 nM.
`COc1cc2oc(-c3cccc(C(=O)Nc4ccc(C)cc4)c3)cc(=O)c2c(OC)c1OC` gave an inhibition at 10 µM (SF-295) of 147%, an inhibition at 10 µM (Malme-3M) of 70.1% and an inhibition at 10 µM (HL-60 [1]) of 92.7%. For the same compound, the inhibition at 10 µM (RPMI-8226 [2]) was 82.6%, the inhibition (CCRF-CEM) was “Active” and the inhibition (HL-60 [3]) was “Active”. For the same compound, the inhibition (K562) was “Active”, the inhibition (SR) was “Active” and the inhibition (A549) was “Active”. The inhibition (EKVX) was “Active”, the inhibition (HOP-62) was “Active” and the inhibition (HOP-92) was “Active”. The inhibition (NCI-H226) was “Active”, the inhibition (NCI-H23) was “Active” and the inhibition (NCI-H322M) was “Active”. For the same compound, the inhibition (NCI-H460) was “Active”, the inhibition (NCI-H522 [4]) was “Active” and the inhibition at 10 µM (NCI-H522 [5]) was 93.3%. The inhibition at 10 µM (COLO 205 [6]) was 82%, the inhibition at 10 µM (HCC 2998 [7]) was 50.1% and the inhibition (COLO 205 [8]) was “Active”. For the same compound, the inhibition (HCC 2998 [9]) was “Active”, the inhibition (HCT-116) was “Active” and the inhibition (HT-29) was “Active”. The inhibition (KM12) was “Active”, the inhibition (SW-620) was “Active” and the inhibition at 10 µM (U-251) was greater than 50%. For the same compound, the inhibition at 10 µM (SF-539) was greater than 50%, the inhibition at 10 µM (UACC-257) was 70.1% and the inhibition at 10 µM (UACC-62) was 108%. It also gave an inhibition at 10 µM (LOX IMVI) of 108%, an inhibition at 10 µM (MDA-MB-435) of 70.1% and an inhibition at 10 µM (OVCAR-8) of 51.8%. For the same compound, the inhibition at 10 µM (ACHN) was 55.7%, the inhibition (RXF 393) was “Active” and the inhibition at 10 µM (CAKI-1) was 97.8%. For the same compound, the inhibition (DU-145) was “Active”, the inhibition at 10 µM (Melanoma cell line) was 95.9% and the inhibition at 10 µM [10] was 72.5%. The inhibition at 10 µM (Renal cancer cell line) was 72.5%, the inhibition at 10 µM [11] was 72.5% and the inhibition at 10 µM (Breast carcinoma cell) was 53.4%. The inhibition at 10 µM (Lung cancer cell line) was 66.5%, the inhibition at 10 µM [12] was 64.7% and the GI50 (RPMI-8226 [13]) was 370 nM.
